According to ChEMBL document CHEMBL4385652, “Discovery of a novel orally active TRPV4 inhibitor: Part 1. Optimization from an HTS hit” (Bioorg Med Chem, 2019):

Columns and labels:
physchem = settings: 1-octanol/phosphate buffer, pH 7.4
in vitro [1] = settings: rat, pooled liver microsomes
in vitro [2] = settings: human, pooled liver microsomes

Compound	logD (physchem)	CLint scaled at 0.75 h, 0.2 µM (in vitro [1])	CLint scaled at 0.75 h, 0.2 µM (in vitro [2])
COc1cc(OC)cc(C(=O)Nc2nc(-c3cccnc3)c(N3CCN(C)CC3)s2)c1	4.1	–	–
COc1cc(OC)cc(C(=O)Nc2nc(-c3ccccc3)c(CCCN3CCN(C)CC3)s2)c1	4.1	–	–
COc1cc(OC)cc(C(=O)Nc2nc(-c3ccncc3)c(N3CCN(C)CC3)s2)c1	4.1	–	–
Cc1c(C(=O)Nc2nc(C3CCC3)c(CCN3CCCCC3)s2)cnn1-c1ccc(F)cc1	4.1	> 1000 mL/min/kg	527 mL/min/kg
COc1cc(OC)cc(C(=O)Nc2nc(-c3ccccc3)c(CN3CCCCC3)s2)c1	4.9	–	–
Cc1nn(-c2ccc(F)cn2)cc1C(=O)Nc1nc(C2CCC2)c(CCN2CCCCC2)s1	4.5	798 mL/min/kg	120 mL/min/kg
COc1cc(OC)cc(C(=O)Nc2nc(-c3ccccc3)c(CCCN3CCOCC3)s2)c1	4.7	–	–
COc1cc(OC)cc(C(=O)Nc2nc(-c3ccccn3)c(N3CCN(C)CC3)s2)c1	3.7	–	–
COc1cc(OC)cc(C(=O)Nc2nc(-c3ccccc3)c(C3CCN(C)CC3)s2)c1	3.6	–	–
COc1cc(OC)cc(C(=O)Nc2nc(-c3ccccc3)c(CCCN(C)C)s2)c1	3.5	–	–
COc1cc(OC)cc(C(=O)Nc2nc(-c3ccccc3)c(CCCN3CCCCC3)s2)c1	4.1	–	–

More lines, now with the values ahead:

logD (physchem)	CLint scaled at 0.75 h, 0.2 µM (in vitro [1])	CLint scaled at 0.75 h, 0.2 µM (in vitro [2])	Compound
4	–	–	COc1cc(OC)cc(C(=O)Nc2nc(C3CC3)c(N3CCN(C)CC3)s2)c1
4.6	–	–	COc1cc(OC)cc(C(=O)Nc2nc(C3CCC3)c(N3CCN(C)CC3)s2)c1
4.8	–	–	Cc1c(C(=O)Nc2nc(C3CCC3)c(N3CCN(C)CC3)s2)cnn1-c1ccc(F)cc1
4.9	–	–	CN1CCN(c2sc(NC(=O)c3cc(-c4ccccc4)n(C)n3)nc2C2CCC2)CC1
4	–	–	Cc1c(C(=O)Nc2nc(C3CCC3)c(N3CCN(C)CC3)s2)cnn1-c1ccc(C#N)cc1
4.3	–	–	Cc1c(C(=O)Nc2nc(C3CCC3)c(N3CCN(C)CC3)s2)cnn1C1CCC(F)(F)CC1
